“And” between values parts separate entries of the source, which are not always exact repeats. Equal entries are not always repeated. Where two headings read alike, the source gives them in different places. Marks after values point to notes of the source that are not given here. Values belong to the compound of their own block, whether it stands above or below them.
Tests used:
cytochrome P450 OleT [1] = target: T1, cytochrome P450 OleT (Jeotgalicoccus sp. ATCC 8456, UniProt E9NSU2); conditions: for maximal high-spin conversion: UV-vis titration, low- to high-spin conversion
cytochrome P450 OleT [2] = target: T1, cytochrome P450 OleT; assay type: biochemical; conditions: for % metabolized: 5 μM OleT, 500 μM fatty acid; for % metabolized / product distribution (%) alcohols: slow H2O2 addition; for product distribution (%) 1-alkene: determined from subtraction of product alcohols from the total FA metabolized; for alcohol regiospecificity α: share of alcohols hydroxylated at Cα; for alcohol regiospecificity β: share of alcohols hydroxylated at Cβ; for product distribution (%) alcohols: share of total product
cytochrome P450 OleT [3] = assay type: biochemical, Jeotgalicoccus sp. ATCC 8456
cytochrome P450 OleT [4] = target: T1, cytochrome P450 OleT; assay: Stopped flow transient kinetics of OleT:fatty acid complexes with H2O2; assay type: biochemical
cytochrome P450 OleT [5] = target: T1, cytochrome P450 OleT; assay type: biochemical
cytochrome P450 OleT [6] = target: T1, cytochrome P450 OleT; assay: Guaiacol oxidation to tetraguaiacol by fatty acid-activated OleT; assay type: biochemical; conditions: DA-d19 compared with protiated DA as decoy
cytochrome P450 OleT [7] = target: T1, cytochrome P450 OleT; conditions: read-out: dissociation constant reported for EA; reported value; ref [2],[13]; cited from earlier work
cytochrome P450 OleT [8] = target: T1, cytochrome P450 OleT; conditions: in vitro; ref [2]–[4]; cited from earlier work
cytochrome P450 OleT [9] = target: T1, cytochrome P450 OleT; conditions: ref [29], cited from earlier work
[10] = 5 μM OleT, 200 mM KPi pH 7.5, 200 mM NaCl, absorbance changes at 392 and 417 nm
[11] = in the presence of norcarane, 10 mM H2O2, 440 nm, 4 °C
[12] = in the absence of norcarane, 10 mM H2O2, 440 nm, 4 °C

SMILES: CCCCCC(=O)O [C6:0]
Kd (cytochrome P450 OleT [1]; [10]): 164 ± 15 µM | maximal high-spin conversion (cytochrome P450 OleT [1]): 19%

SMILES: CCCCCCCC(=O)O [C8:0]
% metabolized (cytochrome P450 OleT [2]): 100% | product distribution (%) 1-alkene (cytochrome P450 OleT [2]): 88.4 ± 0.4 ^b % | alcohol regiospecificity α (cytochrome P450 OleT [2]): 11.3 ± 2.3% α | alcohol regiospecificity β (cytochrome P450 OleT [2]): 89.0 ± 5.3% β | product distribution (%) alcohols (cytochrome P450 OleT [2]): 11.6 ± 0.8% | Kd (cytochrome P450 OleT [1]; [10]): 134 ± 11 µM | maximal high-spin conversion (cytochrome P450 OleT [1]): 25%

% metabolized (cytochrome P450 OleT [2]): 100% | product distribution (%) 1-alkene (cytochrome P450 OleT [2]): 90.0 ± 0.8 ^b % | alcohol regiospecificity β (cytochrome P450 OleT [2]): 100% β | product distribution (%) alcohols (cytochrome P450 OleT [2]): 10.0 ± 0.8% | Kd (cytochrome P450 OleT [1]): 25 ± 8 µM | maximal high-spin conversion (cytochrome P450 OleT [1]): 36%
SMILES: CCCCCCCCCC(=O)O [C10:0, decanoic acid]

SMILES: CCCCCCCCCCCC(=O)O [C12:0, lauric acid]
% metabolized (cytochrome P450 OleT [2]): 98.3 ± 0.2% | alcohol regiospecificity α (cytochrome P450 OleT [2]): 7.0 ± 1.3% α | alcohol regiospecificity α (cytochrome P450 OleT [2]; listed as LA): 7% | alcohol regiospecificity β (cytochrome P450 OleT [2]): 71.5 ± 15.5% β | alcohol regiospecificity γ (cytochrome P450 OleT [2]; share of alcohols hydroxylated at Cγ): 21.5 ± 4.4% γ | product distribution (%) 1-alkene (cytochrome P450 OleT [3]; determined from direct quantitation): 61.4 ± 7.6 ^a % | product distribution (%) alcohols (cytochrome P450 OleT [3]; slow H2O2 addition, share of total product): 38.6 ± 7.6% | Kd (cytochrome P450 OleT [1]): 2.8 ± 0.4 µM | maximal high-spin conversion (cytochrome P450 OleT [1]): 61%

SMILES: [2H]C([2H])([2H])C([2H])([2H])C([2H])([2H])C([2H])([2H])C([2H])([2H])C([2H])([2H])C([2H])([2H])C([2H])([2H])C([2H])([2H])C(=O)O [DA-d19, perdeuterated decanoic acid]
Ole-I decay rate constant (cytochrome P450 OleT [4]; asymptote of RRT1 vs H2O2 plot, 4 °C): ~ 60 s^−1 | Ole-II decay rate constant (cytochrome P450 OleT [4]; independent of H2O2, 4 °C): ~10 s⁻¹ | product yields for radical clock substrates by decoy fatty acid (cytochrome P450 OleT [5]; comparison of decoy fatty acids): highest | improvement of guaiacol oxidation rate (cytochrome P450 OleT [6]): approximately 5 fold

SMILES: CCCCCCCCCCCCCCCCCCCC(=O)O [EA, eicosanoic acid]
Kd (cytochrome P450 OleT [7]): < 1 µM | chemoselectivity for 1-nonadecene production (cytochrome P450 OleT [8]): ≥ 95% | Ole-II decay (cytochrome P450 OleT [9]; at 5 °C, decarboxylation of EA): ~ 10 s^−1 | substrate 2H KIE (kH/kD) for the decay of Ole-I (cytochrome P450 OleT [9]): > 8

SMILES: [2H]C([2H])([2H])C([2H])([2H])C([2H])([2H])C([2H])([2H])C([2H])([2H])C([2H])([2H])C([2H])([2H])C([2H])([2H])C([2H])([2H])C([2H])([2H])C([2H])([2H])C([2H])([2H])C([2H])([2H])C([2H])([2H])C([2H])([2H])C([2H])([2H])C([2H])([2H])C([2H])([2H])C([2H])([2H])C(=O)O [EA-d39, perdeuterated eicosanoic acid]
Ole-II decay rate constant (RRT2) (cytochrome P450 OleT [4]; [11]): 10 ± 2 s⁻¹ | Ole-II formation (Ole-I decay) rate constant (RRT1) (cytochrome P450 OleT [4]; [11]): 83 ± 3 s⁻¹

SMILES: [2H]C([2H])([2H])C([2H])([2H])C([2H])([2H])C([2H])([2H])C([2H])([2H])C([2H])([2H])C([2H])([2H])C([2H])([2H])C([2H])([2H])C([2H])([2H])C([2H])([2H])C(=O)O [LA-d23]
Ole-II decay rate constant (RRT2) (cytochrome P450 OleT [4]; [12]): 10.4 ± 0.5 s⁻¹ | Ole-II formation (RRT1) (cytochrome P450 OleT [4]; [12]): 105 ± 10 s⁻¹ | Ole-II decay rate constant (RRT2) (cytochrome P450 OleT [4]; [11]): 12.5 ± 0.6 s⁻¹ | Ole-II formation (Ole-I decay) rate constant (RRT1) (cytochrome P450 OleT [4]; [11]): 66 ± 3 s⁻¹

product yield (%) ring-closed (cytochrome P450 OleT [5]; in the presence of DA-d19): 41.9% and 40.1% | product yield (%) ring-opened (cytochrome P450 OleT [5]; in the presence of DA-d19): 58.1% and 59.9% | radical lifetime (cytochrome P450 OleT [5]; per trial, from product ratio and krearr = 3 × 10^11 s−1): 2.4 ps
SMILES: CC1CC1c1ccccc1 (centres unmarked) [methylcyclopropane]

radical lifetime (cytochrome P450 OleT [5]; from averaged ratio of rearranged products to norcaranol (G + E)): ~ 35 ps | product yield (%) F (cytochrome P450 OleT [5]; in the presence of DA-d19): 1.9% | product yield (%) I (cytochrome P450 OleT [5]; in the presence of DA-d19): 0.55% | product yield (%) C (cytochrome P450 OleT [5]; in the presence of DA-d19, 4-hydroxy-2-norcarene): 3.8% | product yield (%) cation (cytochrome P450 OleT [5]; in the presence of DA-d19, cation-rearranged product 3-cycloheptenol (A)): 2.6% and 1.4% | product yield (%) E (cytochrome P450 OleT [5]; in the presence of DA-d19, endo-2-norcaranol): 51.5% and 47.6% | product yield (%) G (cytochrome P450 OleT [5]; in the presence of DA-d19, exo-2-norcaranol): 38.9% and 33.4% | product yield (%) radical (cytochrome P450 OleT [5]; in the presence of DA-d19, radical-rearranged product 3-hydroxymethylcyclohexene (D)): 0.75% and 0.47% | radical lifetime (cytochrome P450 OleT [5]; per trial, from product ratio and krearr = 2 × 10^8 s−1): 42 ps and 29 ps
SMILES: C1CCC2CC2C1 (centres unmarked) [norcarane, bicyclo[4.1.0]heptane]

From publication PMC5658662 (Biochemistry, 2017)
